Target: TNFα (Homo sapiens (Human), UniProt P01375)
Assay: TNF induced HEK-Blue assay
Assay type: cell-based
Conditions: TNFα 0.5 ng/ml; HEK-Blue-CD40L cells, NF-κB-driven secreted alkaline phosphatase reporter; 18 h
Protocol: TNF or CD40L-induced HEK-Blue Assay Test compounds serially diluted in DMSO were plated in an assay plate (Labcyte, Cat. #LP-0200) at final concentrations ranging from 0.004 μM to 25μM. TNFα (final concentration 0.5 ng/ml) or CD4OL (final concentration 30 ng/ml) in assay buffer [DMEM, 4.5 g/l glucose (Gibco, Cat. 21063-029), 10% FBS (Sigma, F4135), 1% Penicillin-Streptomycin (Gibco, Cat. 15140-122), 1% Anti-Anti (Gibco, Cat. 15240-112) and 2 mM L-glutamine (Gibco, Cat. 25030-081)] was then added to the assay plate. After a 30 minute pre-incubation at 37° C. and 5% CO2, HEK-Blue-CD40L cells (InvivoGen, Cat. Code hkb-cd40) containing a NF-κB-driven secreted alkaline phosphatase reporter gene were seeded into the assay plate at a density of 20,000 cells per well. This plate was then incubated for 18 h at 37° C. and 5% CO2. Secreted alkaline phosphatase expression was measured using QUANTI-Blue (InvivoGen, Cat. Code rep-qb1) according to manufacturer's specifications and the assay plate was read on a PerkinElmer Envision at 620 nm. Inhibition data for the test compound over a range of concentrations was plotted as percentage inhibition of the test compound (100%=maximum inhibition). IC50 values were determined after correcting for background [(sample read−mean of low control)/(mean of high control−mean of low control)] where by the low control is DMSO without stimulation and high control is DMSO with stimulation. The IC50 is defined as the concentration of test compound which produces 50% inhibition and was quantified using the 4 parameter logistic equation to fit the data.

TNFα, sequence (P01375 77-233): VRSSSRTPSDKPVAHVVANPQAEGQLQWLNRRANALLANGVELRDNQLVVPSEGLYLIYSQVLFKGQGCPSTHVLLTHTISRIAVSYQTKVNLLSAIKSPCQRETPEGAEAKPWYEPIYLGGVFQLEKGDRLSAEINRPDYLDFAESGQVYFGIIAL

Molecule	IC50 [nM]
CC(C)(O)c1ccc(-c2ccc3nc4c(n3n2)[C@H](c2ccccc2OC(F)F)OC[C@@H]4O)cc1 (relative stereo) [Example 58, Cis-9-(2-(difluoromethoxy)phenyl)-2-(4-(2-hydroxypropan-2-yl)phenyl)-6,9-dihydro-7H-pyrano[4′,3′:4,5]imidazo[1,2-b]pyridazin-6-ol]	< 1000
(+/−)-cis-9-(4-fluoro-2-methylphenyl)-2-(4-(2-hydroxypropan-2-yl)phenyl)-6,7,8,9-tetrahydropyrido [4′,3′:4,5]imidazo[1,2-b]pyridazin-6-ol [Example 43]	1000 to 10000
CC(C)(O)c1ccc(-c2ccc3nc4c(n3n2)[C@H](c2ccccc2OC(F)F)NC[C@H]4F)cc1 (racemic) [Example 9, (+/−)-trans-2-(4-(9-(2-(difluoromethoxy)phenyl)-6-fluoro-6,7,8,9-tetrahydropyrido[4′,3′:4,5]imidazo[1,2-b]pyridazin-2-yl)phenyl)propan-2-ol]	1000 to 10000
CCOC(C)c1ccc(-c2ccc3nc4c(n3n2)C(c2ccccc2OC(F)F)NCC4O)cc1 (racemic) [Example 35, (+/−)-cis-9-(2-(difluoromethoxy)phenyl)-2-(4-(1-ethoxyethyl)phenyl)-6,7,8,9-tetrahydropyrido[4′,3′:4,5]imidazo[1,2-b]pyridazin-6-ol]	1000 to 10000
CC(C)(O)c1ccc(-c2ccc3nc4c(n3n2)C(c2ccccc2OC(F)F)OCC4)cc1 (stereo not drawn) [Example 62, 2-(4-(9-(2-(Difluoromethoxy)phenyl)-7,9-dihydro-6H-pyrano[4′,3′:4,5]imidazo[1,2-b]pyridazin-2-yl)phenyl)propan-2-ol]	< 1000
CC(C)(O)c1ccc(-c2ccc3nc4c(n3n2)[C@@H](c2ccccc2OC(F)F)NC[C@@H]4O)cc1 [Example 15, trans-(6S,9R)-9-(2-(difluoromethoxy)phenyl)-2-(4-(2-hydroxypropan-2-yl)phenyl)-6,7,8,9-tetrahydropyrido [4′,3′:4,5]imidazo[1,2-b]pyridazin-6-ol]	1000 to 10000
COc1ccc(Cl)cc1[C@@H]1NC[C@@H](O)c2nc3ccc(-c4ccc(C(C)(C)O)cc4)nn3c21 (racemic) [Example 56, (+/−)-trans-9-(5-chloro-2-methoxyphenyl)-2-(4-(2-hydroxypropan-2-yl)phenyl)-6,7,8,9-tetrahydropyrido[4′,3′:4,5]imidazo[1,2-b]pyridazin-6-ol]	1000 to 10000
O=C(O)CN1CCN(c2ncc(-c3ccc4nc5c(n4n3)C(c3ccccc3OC(F)F)NCC5O)cn2)CC1 (stereo not drawn) [Example 22, 2-(4-(5-(9-(2-(difluoromethoxy)phenyl)-6-hydroxy-6,7,8,9-tetrahydropyrido [4′,3′:4,5]imidazo[1,2-b]pyridazin-2-yl)pyrimidin-2-yl)piperazin-1-yl)acetic acid]	1000 to 10000
CC(C)(O)c1ccc(-c2ccc3nc4c(n3n2)C(c2ccccc2OC(F)(F)F)NCC4O)cc1 (stereo not drawn) [Example 26, 2-(4-(2-hydroxypropan-2-yl)phenyl)-9-(2-(trifluoromethoxy)phenyl)-6,7,8,9-tetrahydropyrido [4′,3′:4,5]imidazo[1,2-b]pyridazin-6-ol]	< 1000
CC(C)(O)c1ccc(-c2ccc3nc4c(n3n2)[C@H](c2ccccc2OC(F)F)NC[C@@H]4O)cc1 (racemic) [Example 4, (+/−)-cis-9-(2-(difluoromethoxy)phenyl)-2-(4-(2-hydroxypropan-2-yl)phenyl)-6,7,8,9-tetrahydropyrido[4′,3′:4,5]imidazo[1,2-b]pyridazin-6-ol]	< 1000
CC(C)(O)c1ccc(-c2ccc3nc4c(n3n2)[C@H](c2ccccc2OC(F)F)NC[C@H]4O)cc1 [Example 5, (+/−)-Cis and trans-9-(2-(difluoromethoxy)phenyl)-2-(4-(2-hydroxypropan-2-yl)phenyl)-6,7,8,9-tetrahydropyrido[4′,3′:4,5]imidazo[1,2-b]pyridazin-6-ol]	1000 to 10000
CC(C)(O)c1ccc(-c2ccc3nc4c(n3n2)C(c2ccccc2OC(F)F)OCC4(C)O)cc1 (stereo not drawn) [Example 59, 9-(2-(Difluoromethoxy)phenyl)-2-(4-(2-hydroxypropan-2-yl)phenyl)-6-methyl-6,9-dihydro-7H-pyrano[4′,3′:4,5]imidazo[1,2-b]pyridazin-6-ol]	1000 to 10000
